We go through 74 compounds from ChEMBL document CHEMBL4304757, “Synthetic heterocyclic candidates as promising α-glucosidase inhibitors: An overview” (Eur J Med Chem, 2019).

Each structure is given as a SMILES string.

The IC50 is the concentration at which inhibition is half-maximal. Lower therefore signals higher potency. The Ki is the equilibrium dissociation constant of an inhibitor or competing ligand from its target. A lower Ki goes with tighter binding.

Biological target in one assay: not listed separately
Kind of assay: Inhibition of yeast alpha-glucosidase using p-nitrophenyl-alpha-d-glucopyranoside as substrate preincubated for 10 mins followed by substrate addition measured after 30 mins. Set-up: species or system Saccharomyces cerevisiae.
The compound `Cc1cc2nc(-c3ccc(C(=O)NNC(=S)Nc4ccc(Cl)c(Cl)c4)cc3)[nH]c2cc1C` displayed a half-inhibitory concentration (IC50) of 35 to 297 µM. For `O=[N+]([O-])c1cccc(-c2nn(-c3ccccc3)cc2-c2nc(-c3ccccc3)c(-c3ccccc3)[nH]2)c1`, the IC50 lay within 2.7 to 23 µM. Turning to `COc1ccc(-n2c(-c3cn(-c4ccccc4)nc3-c3cc4ccccc4oc3=O)nc(-c3ccccc3)c2-c2ccccc2)cc1`, the IC50 lay within 2.5 to 46 µM. On the same count and under the same terms, as for `Cc1cc2nc(-c3ccc(C(=O)N/N=C/c4cccc(O)c4)cc3)[nH]c2cc1C`, the figure is 8.4 to 179 µM. Regarding `Cc1cc2nc(-c3ccc(C(=O)N/N=C/c4ccc(O)c(Br)c4)cc3)[nH]c2cc1C`, the IC50 is 8.4 to 179 µM. Take `Cc1cccc(/C=N/NC(=O)c2ccc(-c3nc4cc(C)c(C)cc4[nH]3)cc2)c1`: the IC50 fell in the range of 8.4 to 179 µM.

A further assay deals with T1, Alpha glucosidase (Homo sapiens, UniProt O43451+P10253+P14410+Q2M2H8). Kind of assay: Inhibition of alpha-glucosidase (unknown origin) using p-nitrophenyl-alpha-d-glucopyranoside as substrate preincubated for 15 mins followed by substrate addition measured after 30 mins. The format is protein assay.
For the compound `Cc1ccc(C(c2c[nH]c3ccc(C(=O)NNS(=O)(=O)c4ccc(Cl)c(Cl)c4)cc23)c2c[nH]c3ccc(C(=O)NNS(=O)(=O)c4ccc(Cl)c(Cl)c4)cc23)cc1`, the IC50 was 100 to 5100 nM.

Regarding `COc1ccc(-c2csc(NC(=O)CSc3nnc(-c4ccc(Br)cc4)c(-c4ccc(Br)cc4)n3)n2)cc1`, the concentration for half-maximal inhibition (IC50) is 2800 nM.

In a further assay the target is T1, Alpha glucosidase. As to the kind of experiment: Inhibition of alpha-glucosidase (unknown origin). The format is protein assay.
For the compound `O=C(C[C@@H](c1cccs1)c1c[nH]c2ccccc12)c1ccccc1`, the IC50 lay in the range of 4.3 to 43 µM. `N#Cc1ccc2[nH]cc(C(c3ccc(-c4nnc(-c5c[nH]c6ccccc56)o4)cc3)c3c[nH]c4ccc(C#N)cc34)c2c1` gave an IC50 of 20 to 292 µM. The same measure, in the same setting: to `Cc1[nH]c2ccccc2c1-c1nnc(-c2ccc(C(c3c[nH]c4ccc(Cl)cc34)c3c[nH]c4ccc(Cl)cc34)cc2)o1` belongs 20 to 292 µM; to `COc1ccc(-c2nc(-c3ccccc3)c(-c3ccccc3)n2Cc2cn(CC(=O)Nc3ccc(Cl)cc3Cl)nn2)cc1OC`, 15 to 48 µM; to `Cn1cc(-c2nnc(-c3ccc(C(c4c[nH]c5ccccc45)c4c[nH]c5ccc(Cl)cc45)cc3)o2)c2ccccc21` (stereo not given), 2 µM. Compound `Cn1cc(-c2nnc(-c3ccc(C(c4c[nH]c5ccc(Br)cc45)c4c[nH]c5ccc(Br)cc45)cc3)o2)c2ccccc21` registered an IC50 of 20 to 292 µM. `COC(=O)CC(C)=O` displayed an IC50 of 19 to 25 µM. For `Cc1ccc(NC(=O)Cn2cc(Cn3c(-c4cccc(F)c4)nc(-c4ccccc4)c3-c3ccccc3)nn2)c(C)c1`, the half-maximal inhibitory concentration (IC50) lay in the range of 15 to 48 µM. Still for that read-out and setting: to `COc1ccc(Cc2nnc(-c3ccc(Cl)cc3)n2Cc2nn(CN3CCN(C)CC3)c(=S)o2)cc1` belongs 4.3 µM; to `O=C1Nc2cc(Br)ccc2/C1=N/NC(=O)c1ccccc1O`, 2.2 to 83 µM; to `Cc1ccccc1NC(=O)Cn1cc(Cn2c(-c3ccc(Br)cc3)nc(-c3ccccc3)c2-c2ccccc2)nn1`, 15 to 48 µM. Consider `Cc1[nH]c2ccccc2c1-c1nnc(-c2ccc(C(c3c(-c4ccccc4)[nH]c4ccccc34)c3c(-c4ccccc4)[nH]c4ccccc34)cc2)o1`, for which the IC50 is 20 to 292 µM. Consider `COc1ccccc1-c1nc(-c2ccccc2)c(-c2ccccc2)n1Cc1cn(CC(=O)Nc2ccc(C)cc2)nn1`, for which the half-inhibitory concentration (IC50) was in the range of 15 to 48 µM. As to `c1ccc(-c2[nH]c3ccccc3c2C(c2ccc(-c3nnc(-c4c[nH]c5ccccc45)o3)cc2)c2c(-c3ccccc3)[nH]c3ccccc23)cc1`, the IC50 is 20 to 292 µM. For `c1ccc2c(-c3nnc(-c4ccc(C(c5c[nH]c6ccccc56)c5c[nH]c6ccccc56)cc4)o3)c[nH]c2c1`, the half-inhibitory concentration (IC50) was in the range of 20 to 292 µM.

`CCOc1ccc(NC(=O)Cn2cc(Cn3c(-c4cccc(Cl)c4)nc(-c4ccccc4)c3-c3ccccc3)nn2)cc1` registered a half-inhibitory concentration (IC50) of 15 to 48 µM. Still for that read-out and setting: to `O=C(C[C@@H](c1ccc(Cl)cc1)c1c[nH]c2ccccc12)c1ccc2ccccc2c1` belongs 4.3 to 43 µM; to `Cc1ccc([C@H](CC(=O)c2ccccc2)c2c[nH]c3ccccc23)cc1`, 4.3 to 43 µM.

Compound `Cn1cc(C(c2ccc(-c3nnc(-c4c[nH]c5ccccc45)o3)cc2)c2cn(C)c3ccccc23)c2ccccc21` showed an IC50 of 20 to 292 µM. Still for that read-out and setting: to `Cn1cc(-c2nnc(-c3ccc(C(c4cn(C)c5ccccc45)c4cn(C)c5ccccc45)cc3)o2)c2ccccc21` belongs 20 to 292 µM; to `Cc1ccc(C(=O)N/N=C2\C(=O)Nc3ccc(Cl)cc32)cc1`, 2.2 to 83 µM. Same read-out and setting: to `O=C(C[C@@H](c1ccc(Br)cc1)c1c[nH]c2ccccc12)c1ccccc1` belongs 4.3 to 43 µM.

Compound `O=C1CSC(=O)N1` [THIAZOLIDINEDIONE] yielded a half-inhibitory concentration (IC50) of 0.54 to 2.2 µM. In the case of `CCCN1C(=O)/C(=N\NC(=O)Cc2ccc(Cl)cc2Cl)c2ccccc21`, the half-inhibitory concentration (IC50) is 2.2 to 83 µM. Compound `COC(=O)c1ccc(-c2nc(-c3ccccc3)c(-c3ccccc3)n2Cc2cn(CC(=O)Nc3cc(Cl)ccc3Cl)nn2)cc1` had an IC50 of 15 to 48 µM. With `CCOc1ccccc1NC(=O)Cn1cc(Cn2c(-c3cccc(Br)c3)nc(-c3ccccc3)c2-c2ccccc2)nn1`, the 50% inhibitory concentration (IC50) was 15 µM and the Ki was determined as 14 µM. As for `O=C(Cn1cc(Cn2c(-c3ccc(F)cc3)nc(-c3ccccc3)c2-c2ccccc2)nn1)Nc1ccc(Cl)cc1Cl`, the IC50 lay in the range of 15 to 48 µM. In turn, `O=C(Cc1ccc(Cl)c(Cl)c1)N/N=C1\C(=O)Nc2cc(Br)ccc21` displayed a half-maximal inhibitory concentration (IC50) of 2.2 to 83 µM. `CCOC(=O)CC(=O)OCC` [MALONIC ACID DIETHYL ESTER]: the IC50 fell in the range of 5 to 16 µM. Consider `Cc1cccc([C@H](CC(=O)c2ccccc2)c2c[nH]c3ccccc23)c1`, for which the half-maximal inhibitory concentration (IC50) was in the range of 4.3 to 43 µM.

On to `Cc1[nH]c2ccccc2c1-c1nnc(-c2ccc(C(c3c[nH]c4ccccc34)c3c[nH]c4ccccc34)cc2)o1`, for which the IC50 is 20 to 292 µM. Same read-out and setting: to `Cc1c(C(c2ccc(-c3nnc(-c4c[nH]c5ccccc45)o3)cc2)c2c(C)n(C)c3ccccc23)c2ccccc2n1C` belongs 20 to 292 µM. The same measure, in the same setting: to `O=C(C[C@@H](c1cccs1)c1c[nH]c2ccccc12)c1ccc2ccccc2c1` belongs 4.3 to 43 µM. Regarding `CCOc1ccccc1NC(=O)Cn1cc(Cn2c(-c3ccccc3F)nc(-c3ccccc3)c2-c2ccccc2)nn1`, the half-maximal inhibitory concentration (IC50) fell in the range of 15 to 48 µM. In turn, `COc1ccc([C@H](CC(=O)c2ccccc2)c2c[nH]c3ccccc23)cc1` had an IC50 of 4.3 to 43 µM. Compound `Cc1ccccc1NC(=O)Cn1cc(Cn2c(-c3cccc(F)c3)nc(-c3ccccc3)c2-c2ccccc2)nn1` came in with an IC50 of 15 to 48 µM. Compound `O=C(C[C@@H](c1ccccc1)c1c[nH]c2ccccc12)c1ccccc1` returned a half-inhibitory concentration (IC50) of 4.3 to 43 µM. On to `Cc1c(C(c2ccc(-c3nnc(-c4cn(C)c5ccccc45)o3)cc2)c2c(C)n(C)c3ccccc23)c2ccccc2n1C`, for which the IC50 was 20 to 292 µM.

The compound `O=C(C[C@@H](c1ccc(Cl)cc1Cl)c1c[nH]c2ccccc12)c1ccccc1` returned a half-inhibitory concentration (IC50) of 4.3 to 43 µM. On the same count and under the same terms, to `CCCCCCCCCCCC(=O)N/N=C1\C(=O)Nc2ccccc21` belongs 2.2 to 83 µM; to `Cc1[nH]c2ccccc2c1-c1nnc(-c2ccc(C(c3c[nH]c4ccc(Br)cc34)c3c[nH]c4ccc(Br)cc34)cc2)o1`, 20 to 292 µM; to `Cn1cc(-c2nnc(-c3ccc(C(c4c[nH]c5ccccc45)c4c[nH]c5ccccc45)cc3)o2)c2ccccc21`, 20 to 292 µM. In turn, `CCOc1ccc(NC(=O)Cn2cc(Cn3c(-c4ccc(C(=O)OC)cc4)nc(-c4ccccc4)c3-c3ccccc3)nn2)cc1` showed an IC50 of 15 to 48 µM. As for `O=C1Nc2cc(Cl)ccc2/C1=C/c1ccc(-c2nnc(-c3cc(O)cc(O)c3)o2)cc1`, the IC50 was 1.2 µM.

Compound `O=C(C[C@@H](c1cccc([N+](=O)[O-])c1)c1c[nH]c2ccccc12)c1ccccc1` registered a half-maximal inhibitory concentration (IC50) of 4.3 to 43 µM.

`Cn1cc(-c2nnc(-c3ccc(C(c4c[nH]c5ccc(C#N)cc45)c4c[nH]c5ccc(C#N)cc45)cc3)o2)c2ccccc21` came in with an IC50 of 20 to 292 µM. Same read-out and setting: to `Cc1ccc(NC(=O)Cn2cc(Cn3c(-c4cccc(Cl)c4)nc(-c4ccccc4)c3-c3ccccc3)nn2)c(C)c1` belongs 15 to 48 µM; to `Cc1[nH]c2ccccc2c1-c1nnc(-c2ccc(C(c3c(C)n(C)c4ccccc34)c3c(C)n(C)c4ccccc34)cc2)o1`, 20 to 292 µM; to `COc1ccc(NC(=O)Cn2cc(Cn3c(-c4cccs4)nc(-c4ccccc4)c3-c3ccccc3)nn2)cc1`, 15 to 48 µM. On the same count and under the same terms, as for `O=C(C[C@@H](c1cccc(Br)c1)c1c[nH]c2ccccc12)c1ccccc1`, the figure is 4.3 to 43 µM. Still for that read-out and setting: to `Cn1cc(-c2nnc(-c3ccc(C(c4c(-c5ccccc5)[nH]c5ccccc45)c4c(-c5ccccc5)[nH]c5ccccc45)cc3)o2)c2ccccc21` belongs 20 to 292 µM; to `Cc1ccc([C@H](CC(=O)c2ccc3ccccc3c2)c2c[nH]c3ccccc23)cc1`, 4.3 to 43 µM. For `Cn1cc(-c2nnc(-c3ccc(C(c4c[nH]c5ccc(Cl)cc45)c4c[nH]c5ccc(Cl)cc45)cc3)o2)c2ccccc21`, the IC50 lay within 20 to 292 µM.

`Cc1[nH]c2ccccc2c1-c1nnc(-c2ccc(C(c3c[nH]c4ccc(C#N)cc34)c3c[nH]c4ccc(C#N)cc34)cc2)o1` gave an IC50 of 20 to 292 µM. Compound `O=C(Cc1ccc(Cl)cc1Cl)N/N=C1\C(=O)Nc2cc(Br)ccc21` displayed an IC50 of 2.2 µM.

The compound `O=C(Cn1cc(Cn2c(-c3ccc(Br)cc3)nc(-c3ccccc3)c2-c2ccccc2)nn1)Nc1ccc(F)cc1` came in with an IC50 of 15 to 48 µM. As for `O=C(C[C@@H](c1ccc(Cl)cc1)c1c[nH]c2ccccc12)c1ccccc1`, the half-maximal inhibitory concentration (IC50) was in the range of 4.3 to 43 µM.

On to `CCn1c2ccccc2c2cc(NC(=O)CSc3nc4ccccc4[nH]3)ccc21`, for which the half-inhibitory concentration (IC50) was 0.17 µM. `COc1ccc(NC(=O)Cn2cc(Cn3c(-c4cccc(Cl)c4)nc(-c4ccccc4)c3-c3ccccc3)nn2)cc1` had an IC50 of 15 to 48 µM. In the case of `O=C(C[C@@H](c1ccccc1)c1c[nH]c2ccccc12)c1ccc2ccccc2c1`, the IC50 fell in the range of 4.3 to 43 µM. On to `O=C1NC(=O)/C(=C/c2ccc(-c3nc4ccccc4n3Cc3ccc(Cl)cc3)cc2)S1`, for which the 50% inhibitory concentration (IC50) was 0.54 µM. Still for that read-out and setting: as for `COc1ccc(Cc2nnc(-c3ccc(Cl)cc3)n2CC(=O)NNC(=S)Nc2ccc(Cl)cc2)cc1`, the figure is 3.4 µM. In turn, `COc1ccc([C@H](CC(=O)c2ccc3ccccc3c2)c2c[nH]c3ccccc23)cc1` gave a concentration for half-maximal inhibition (IC50) of 4.3 to 43 µM. On the same count and under the same terms, as for `O=C(C[C@@H](c1c(Cl)cccc1Cl)c1c[nH]c2ccccc12)c1ccccc1`, the figure is 4.3 µM; as for `Cc1[nH]c2ccccc2c1-c1nnc(-c2ccc(C(c3cn(C)c4ccccc34)c3cn(C)c4ccccc34)cc2)o1`, 20 to 292 µM; as for `Clc1ccc2[nH]cc(C(c3ccc(-c4nnc(-c5c[nH]c6ccccc56)o4)cc3)c3c[nH]c4ccc(Cl)cc34)c2c1`, 20 to 292 µM.
